Earlier results on nine molecules are cited in PubChem BioAssay AID1259410 (Chemical Carcinogenesis Research Information System (CCRIS), 2018).

The subject of the data set is rodent tumor promotion studies, tumor incidence. The data set is described as follows: CCRIS tumor promotion studies.

With `COC[C@@H]([C@H](O)[C@H](O)C(=O)NCC[C@H](C)c1nc(/C=C/C[C@@H]2O[C@]3(C[C@@H](O)[C@@H]2C)O[C@H]([C@H](C[C@H](O)[C@H](C)[C@H](O)[C@H](C)/C=C(C)/C(C)=C/C=C/C(C)=C\C#N)OC)[C@H](OP(=O)(O)O)C3(C)C)co1)N(C)C`, the outcome (Carcinogen: 7,12-DIMETHYLBENZ[A]ANTHRACENE, 57-97-6, Doses [Carcinogen]: 100 UG IN 0.1 ML ACETONE TO THE DORSAL SKIN ONCE, Doses [Promoter]: 0, 0.1, 1 UG IN 0.1 ML ACETONE TO THE DORSAL SKIN 2/WK FOR 29 WK BEGINNING 1 WK POST CARCINOGEN DOSE (STUDY DURATION: 30, Doses [Promoter]: 0, 0.1, 1 UG IN 0.1 ML ACETONE TO THE DORSAL SKIN 2/WK FOR 29 WK BEGINNING 1 WK POST CARCINOGEN DOSE (STUDY DURATION: 30, Route [Carcinogen]: DERMAL, Route [Promoter]: DERMAL, Species: MOUSE, Strain/Sex: CD-1/FEMALE) was “skin: papilloma”.

For `CC(C)NCC(O)c1ccc(O)c(O)c1` (configuration not stated), the outcome (Carcinogen: N-NITROSOMORPHOLINE, 59-89-2, Doses [Carcinogen]: 175 MG/L IN DRINKING WATER FOR 8 WK, Doses [Promoter]: 0, 0.1 MG/KG BW IN OLIVE OIL 1/2 D FOR 13 WK BEGINNING SIMULTANEOUSLY WITH CARCINOGEN TREATMENT (STUDY DURATION: 13 WK), Route [Carcinogen]: ORAL, Route [Promoter]: SUBCUTANEOUS, Species: RAT, Strain/Sex: SPRAGUE-DAWLEY/MALE) is listed as “liver: carcinoma”.

On to `Cc1ccc2cc3c(ccc4ccccc43)c3c2c1CC3`, for which the outcome (Carcinogen: N-BIS(2-HYDROXYPROPYL)NITROSAMINE, 53609-64-6, N-ETHYL-N-HYDROXYETHYLNITROSAMINE, 13147-25-6, 3,2'-DIMETHYL-4-AMINOB, Carcinogen: N-BIS(2-HYDROXYPROPYL)NITROSAMINE, 53609-64-6, N-ETHYL-N-HYDROXYETHYLNITROSAMINE, 13147-25-6, 3,2'-DIMETHYL-4-AMINOB, Doses [Carcinogen]: 1000 MG/KG IP IN SALINE ON DAY 1 AND 4, 1500 MG/KG IG IN DISTILLED WATER ON DAY 8 AND 11, 75 MG/KG SC IN CORN OIL ON D, Doses [Carcinogen]: 1000 MG/KG IP IN SALINE ON DAY 1 AND 4, 1500 MG/KG IG IN DISTILLED WATER ON DAY 8 AND 11, 75 MG/KG SC IN CORN OIL ON D, Doses [Promoter]: 0, 0.02% IN DIET BEGINNING 1 WK POST LAST CARCINOGEN DOSE AND CONTINUING FOR 12 WK (STUDY DURATION: 16 WK), Route [Carcinogen]: INTRAPERITONEAL, GAVAGE, SUBCUTANEOUS, Route [Carcinogen]: INTRAPERITONEAL, GAVAGE, SUBCUTANEOUS, Route [Promoter]: ORAL, Species: RAT, Strain/Sex: F344/MALE) is listed as “lung: adenoma or adenocarcinoma”.

As for `O=C(O)CCC(=O)O`, the outcome (Carcinogen: N-BUTYL-N-(4-HYDROXYBUTYL)NITROSAMINE, 3817-11-6, Doses [Carcinogen]: 0.05% IN DRINKING WATER FOR 4 WK, Doses [Promoter]: 0, 5% IN BASAL DIET BEGINNING POST CARCINOGEN TREATMENT AND CONTINUING FOR 32 WK (STUDY DURATION: 36 WK), Route [Carcinogen]: ORAL, Route [Promoter]: ORAL, Species: RAT, Strain/Sex: F344/MALE) is recorded as “urinary bladder: papilloma, carcinoma”.

For `CCCCCCCCCCCC1(CCCC(=O)OC2C(C)C3(O)C(C=C(CO)CC4(O)C(=O)C(C)=CC43)C3C(C)(C)C23OC(C)=O)OCC(C)(C)N1[O]` (configuration not stated), for the setting “Carcinogen: 7,12-DIMETHYLBENZ[A]ANTHRACENE, 57-97-6, Doses [Carcinogen]: 100 NMOL ONCE, Doses [Promoter]: 0, 5 NMOL 2/WK FOR 24 WK BEGINNING 1 WK POST CARCINOGEN DOSE (STUDY DURATION: 25 WK), Route [Carcinogen]: DERMAL, Route [Promoter]: DERMAL, Species: MOUSE, Strain/Sex: NMRI/FEMALE”, the outcome is recorded as “skin: tumor”.

Consider `C=C1/C(=C\C=C2/CCC[C@]3(C)[C@@H]([C@H](C)CCCC(C)(C)O)CC[C@@H]23)C[C@@H](O)C[C@@H]1O`, for which the outcome is listed as “skin: tumors” (Carcinogen: 7,12-DIMETHYLBENZ[A]ANTHRACENE, 57-97-6, Doses [Carcinogen]: 50 NMOL IN 200 µL ACETONE 2/WK FOR 16 WK, Doses [Promoter]: 0, 0.25, 0.5 NMOL IN 200 µL ACETONE APPLIED 1 HR PRIOR TO CARCINOGEN DOSES 2/WK FOR 16 WK (STUDY DURATION: 16 WK), Doses [Promoter]: 0, 0.25, 0.5 NMOL IN 200 µL ACETONE APPLIED 1 HR PRIOR TO CARCINOGEN DOSES 2/WK FOR 16 WK (STUDY DURATION: 16 WK), Route [Carcinogen]: DERMAL, Route [Promoter]: DERMAL, Species: MOUSE, Strain/Sex: CD-1/FEMALE); “skin: tumors” (Carcinogen: 7,12-DIMETHYLBENZ[A]ANTHRACENE, 57-97-6, Doses [Carcinogen]: 50 NMOL IN 200 µL ACETONE 2/WK FOR 16 WK, Doses [Promoter]: 0, 0.25 NMOL IN 200 µL ACETONE APPLIED 1 HR PRIOR TO AND 24 HR POST CARCINOGEN DOSES 2/WK FOR 16 WK (STUDY DURATION: 16, Route [Carcinogen]: DERMAL, Route [Promoter]: DERMAL, Species: MOUSE, Strain/Sex: CD-1/FEMALE); “skin: tumors” (Carcinogen: 7,12-DIMETHYLBENZ[A]ANTHRACENE, 57-97-6, Doses [Carcinogen]: 50 NMOL IN 200 µL ACETONE 2/WK FOR 16 WK, Doses [Promoter]: 0, 0.5 NMOL IN 200 µL ACETONE APPLIED 24 HR POST CARCINOGEN DOSES 2/WK FOR 16 WK (STUDY DURATION: 16 WK), Route [Carcinogen]: DERMAL, Route [Promoter]: DERMAL, Species: MOUSE, Strain/Sex: CD-1/FEMALE); “glandular stomach: adenocarcinoma” (Carcinogen: N-METHYL-N'-NITRO-N-NITROSOGUANADINE, 70-25-7, Doses [Carcinogen]: 150 MG/L IN DRINKING WATER, Doses [Promoter]: 0, 2.5, 5 MG/KG IN DIET FOR DURATION OF STUDY BEGINNING 4 WK POST CARCINOGEN TREATMENT (STUDY DURATION: 32 WK), Doses [Promoter]: 0, 2.5, 5 MG/KG IN DIET FOR DURATION OF STUDY BEGINNING 4 WK POST CARCINOGEN TREATMENT (STUDY DURATION: 32 WK), Route [Carcinogen]: ORAL, Route [Promoter]: ORAL, Species: RAT, Strain/Sex: WISTAR/MALE).

Consider `ClC1=C(Cl)C2(Cl)C3C(Cl)C(Cl)CC3C1(Cl)C2(Cl)Cl` (configuration not stated), for which the outcome (Carcinogen: DIETHYLNITROSAMINE, 55-18-5, Doses [Carcinogen]: 20 PPM IN DRINKING WATER FOR 14 WK, Doses [Promoter]: 0, 25, 50 PPM TECHNICAL GRADE IN DIET BEGINNING 4 WK POST LAST CARCINOGEN DOSE AND CONTINUING FOR 25 WK (STUDY DURATION:, Doses [Promoter]: 0, 25, 50 PPM TECHNICAL GRADE IN DIET BEGINNING 4 WK POST LAST CARCINOGEN DOSE AND CONTINUING FOR 25 WK (STUDY DURATION:, Route [Carcinogen]: ORAL, Route [Promoter]: ORAL, Species: MOUSE, Strain/Sex: B6C3F1/MALE) is on record as “liver: adenoma or carcinoma”.

On to `[Na+]`, for which the outcome by setting is: (Carcinogen: N-BUTYL-N-(4-HYDROXYBUTYL)NITROSAMINE, 3817-11-6, Doses [Carcinogen]: 0.05% IN DRINKING WATER FOR 4 WK, Doses [Promoter]: 0, 2.34% IN DIET BEGINNING POST LAST CARCINOGEN DOSE AND CONTINUING FOR 32 WK (STUDY DURATION: 37 WK), Route [Carcinogen]: ORAL, Route [Promoter]: ORAL, Species: RAT, Strain/Sex: WISTAR/MALE) “urinary bladder: papilloma”; (Carcinogen: N-METHYL-N'-NITRO-N-NITROSOGUANIDINE, 70-25-7, Doses [Carcinogen]: 0.25 ML/10 G BW OF A 5 G/L DISTILLED WATER SOLUTION (7.5-8.8 MG/RAT) ONCE, Doses [Promoter]: 0, 10% IN DIET BEGINNING POST CARCINOGEN DOSE AND CONTINUING FOR STUDY DURATION (STUDY DURATION: 1 YR), Route [Carcinogen]: INTRAGASTRIC, Route [Promoter]: ORAL, Species: RAT, Strain/Sex: ACI/MALE) “forestomach: squamous carcinoma”; (Carcinogen: N-METHYL-N'-NITRO-N-NITROSOGUANIDINE, 70-25-7, Doses [Carcinogen]: 25 UG/ML IN DRINKING WATER FOR 25 WK, Doses [Promoter]: 0, 10% IN DIET FOR 26 WK BEGINNING 1 WK POST CARCINOGEN TREATMENT (STUDY DURATION: 52 WK), Route [Carcinogen]: ORAL, Route [Promoter]: ORAL, Species: RAT, Strain/Sex: WISTAR/MALE) “glandular stomach: adenocarcinoma”; (Carcinogen: N-METHYL-N'-NITRO-N-NITROSOGUANIDINE, 70-25-7, Doses [Carcinogen]: 100 PPM IN DRINKING WATER FOR 8 WK, Doses [Promoter]: 0, 5, 10% IN DIET FOR 82 WK BEGINNING POST CARCINOGEN TREATMENT (STUDY DURATION: 90 WK), Doses [Promoter]: 0, 5, 10% IN DIET FOR 82 WK BEGINNING POST CARCINOGEN TREATMENT (STUDY DURATION: 90 WK), Route [Carcinogen]: ORAL, Route [Promoter]: ORAL, Species: RAT, Strain/Sex: WISTAR/MALE) “glandular stomach: adenoma or adenocarcinoma”; (Carcinogen: N-METHYL-N'-NITRO-N-NITROSOGUANIDINE, 70-25-7, Doses [Carcinogen]: 100 PPM IN DRINKING WATER FOR 10 WK, Doses [Promoter]: 0, 2.5, 5% IN DIET FOR 62 WK BEGINNING POST CARCINOGEN TREATMENT (STUDY DURATION: 72 WK), Doses [Promoter]: 0, 2.5, 5% IN DIET FOR 62 WK BEGINNING POST CARCINOGEN TREATMENT (STUDY DURATION: 72 WK), Route [Carcinogen]: ORAL, Route [Promoter]: ORAL, Species: RAT, Strain/Sex: WISTAR/MALE) “stomach: adenocarcinoma”; (Carcinogen: N-[4-(5-NITRO-2-FURYL)-2-THIAZOLYL]FORMAMIDE, 24554-26-5, Doses [Carcinogen]: 0.2% IN DIET FOR 6 WK, Doses [Promoter]: 0, 1.34% IN PROLAB DIET FOR 72 WK BEGINNING POST CARCINOGEN TREATMENT (STUDY DURATION: 78 WK), Route [Carcinogen]: ORAL, Route [Promoter]: ORAL, Species: RAT, Strain/Sex: F344/MALE) “urinary bladder: carcinoma, carcinoma and papilloma”.

`CCCCCCCCCCCC(=O)OC[C@@H](O)[C@H]1OC[C@H](O)[C@H]1O`: for the setting “Carcinogen: 7,12-DIMETHYLBENZ(A)ANTHRACENE, Doses [Carcinogen]: TOP, Route [Carcinogen]: DERMAL, Route [Promoter]: DERMAL, Species: MOUSE, Strain/Sex: MALE”, the outcome is given as “integumentary system (skin)”.
